The structures appear in SMILES notation.

Here are results for 4 compounds from patent EP4559919A1, “TRICYCLIC-CONTAINING MACROCYCLIC COMPOUND AND USE THEREOF” (Medshine Discovery Inc., priority 2022, dated 2024).

A short description of series [1]: Cell permeability test, MDCKII-MDR1 monolayer. The format is in vitro ADME. As to conditions: dog, MDCK-MDR1, pH 7.4. How it is done: The permeability and efflux ratio of the test compounds were evaluated using the MDCKII-MDR1 monolayer cell test system to determine the potential of the compounds to cross the blood-brain barrier and to be effluxed by the P-gp transporter.
MDCKII-MDR1 cells (from the Netherlands Cancer Institute) were seeded into a 96-well cell plate (from Corning) at a cell density of 2.5 × 10^5 cells/mL and cultured for 7 days to form a confluent monolayer.
The apparent permeability coefficient (Papp, cm/s) was calculated using the following formula: Papp = (dCr / dt) × Vr /(A × C0). Herein, dCr/dt is the cumulative concentration of the compound at the receiving end per unit time (µM/s); Vr is the volume of the solution at the receiving end (the volumes of the solution at the apical and basal sides are 0.075 mL and 0.250 mL, respectively); A is the relative surface area of the cell monolayer (0.0804 cm^2); C0 is the initial concentration (nM) of the test compound at the dosing end or the peak area ratio of the control compound. The efflux ratio was calculated using the following formula: ER = Papp(BA) / Papp(AB). The recovery rate was calculated using the following formula: % Recovery = 100 × [(Vr × Cr)+(Vd × Cd)] /(Vd × C0). Herein, C0 is the initial concentration of the test compound at the dosing end (nM) or the peak area ratio of the control compound; Vd is the volume at the dosing end (0.075 mL for the apical side and 0.250 mL for the basal side); Cd and Cr are the final concentrations (nM) of the test compound at the dosing end and the receiving end or the peak area ratios of the control compound, respectively.

Series [2] relates to Ba/F3-EML4-ALK-G1202R/L1196M. Description: Anti-proliferative activity test on Ba/F3 cell lines (CellTiter-Glo). It is filed as cell-based. The following applies: for IC50: Ba/F3 EML4-ALK-G1202R-L1196M, 72 hours, read-out: Half maximal inhibitory concentration IC50 for cells Ba/F3-EML4-ALK-G1202R/L1196 M. How it is done: (§1) • (1) Cell culture: The cell lines were cultured in an incubator at 37°C with 5% CO2. Regular passaging was performed, and cells in the logarithmic growth phase were selected for plating; • (2) Preparation of compound storage plate: The test compounds were prepared into a 10 mM solution with DMSO (Stock Con.); The compounds were then prepared into a 1 mM solution with DMSO (Work Con.); 1 µL of the stock solution was mixed with 9 µL of DMSO to prepare a 10 µL work solution. • (3) Preparation of 1000× compound storage plate (tube): The compounds were 3-fold serially diluted from […] to the lowest concentration, for a total of 8 concentrations; • (4) Preparation of 20× compound working solution: 98 µL of cell culture medium was added to a flat-bottomed 96-well transparent drug plate. From the 1000× compound storage plate, 2 µL of the compound was pipetted into the cell culture medium in the 96-well transparent drug plate. In the solvent control, 2 µL of DMSO was added. After the compound or DMSO was added, the mixture was homogenized using a pipette. • (5) Cells were stained with trypan blue and viable cells were counted to ensure a cell viability of 90% or more. The cell concentration was adjusted to an appropriate concentration; • (6) 95 µL of cell suspension (2000 cells/well) was added to each well of the compound assay cell plate, and cell-free culture medium containing 0.1% DMSO was added to the Min control wells; • (7) Administration in the compound assay cell plate: 5 µL of 20× compound working solution was added to the cell culture plate, 5 µL of DMSO-cell culture medium mixture was added to the Max control wells, and the final concentration of DMSO was 0.1%; • (8) The culture plate was then incubated in an incubator at 37°C with 5% CO2 for 72 hours; • (9) The following operations were conducted in accordance with the instructions of the Promega CellTiter-Glo Luminescent Cell Viability Assay Kit (Promega-G7573): CellTiter-Glo buffer was thawed and brought to room temperature; CellTiter-Glo substrate was brought to room temperature; CellTiter-Glo buffer was added to a bottle of CellTiter-Glo substrate to dissolve the substrate, thereby preparing CellTiter-Glo working solution; The mixture was slowly vortexed and shaken to be fully dissolved; The cell culture plate was removed and allowed to equilibrate to room temperature for 10 minutes; 50 µL (equal to half the volume of cell culture medium in each well) of CellTiter-Glo working solution was added to each well; The culture plate was shaken on an orbital shaker for 2 minutes to induce cell lysis; The plate was then left at room temperature for 10 minutes to stabilize the luminescent signal; The luminescent signal was detected using a SpectraMax Paradigm plate reader; Cell viability assay was conducted using CellTiter-Glo luminescence method.
(§2) Data analysis: The corresponding […] value (RLU) for each well was obtained from SpectraMax Paradigm readings. […] The inhibition rates corresponding to compounds at different concentrations were calculated in Excel, and the inhibition rate curves were plotted using GraphPad Prism software to calculate relevant parameters, including the maximum and minimum inhibition rates of the cells and the IC50 value.
In general terms: In ATP-based viability assays light output follows the ATP content of the culture.

A further series concerns Ba/F3-TEL-TRKB. Described as above. It is filed as cell-based. As to conditions: Mus musculus, BaF3; 72 hours; read-out: Half maximal inhibitory concentration IC50 for cells Ba/F3-TEL-TRKB. As to the method: as §1, §2
The next series concerns the target T1, TRKB (Homo sapiens, UniProt Q16620).
T1 construct: purchased Carna
Description: In vitro kinase inhibitory activity assay, Experimental method 2 (ADP-Glo). The format is biochemical. As to conditions: Experimental method 2; ATP 5.0 µM, substrate PolyE4Y1; read-out: Kinase half maximal inhibitory concentration IC50 TRKB. As to the method: (§3) The kinase inhibitory activity assays of the compounds against ALK, ALK^L1196M, ALK^G1202R, ALK^G1202R/L1196M, ROS1, and TRKB were conducted at Wuhan Heyan Biotechnology Co., Ltd. or Hefei PreceDo Biotechnology Co., Ltd.
(§4) Experimental materials: ALK (G1202R/L1196M) Active and TRKB were purchased from Carna; IGF1 was purchased from GenScript; PolyE4Y1 was purchased from SIGMA; ADP-Glo™ Reagent was purchased from Promega; ATP was purchased from Promega; Kinase Detection Reagent was purchased from Promega; microplate reader ( PerkinElmer).
TRKB reaction concentration 4.47 nM, ATP concentration 5.0 µM, substrate PolyE4Y1 concentration 0.2 µg/µL. TRKB kinase buffer was 40 mM Tris-HCl (pH 7.5) + 20 mM magnesium chloride + 2.5 mM manganese chloride + 0.1mg/mL BSA+ 50 µM DTT.
(§5) ALK(G1202R/L1196M) and TRKB detection method: 2 µL of kinase and 1 µL of compound were added to a 384-well plate; 2 µL of substrate/ATP mixture was added and incubated at room temperature in the dark for 60 minutes; 5 µL of ADP-Glo™ reagent was added and incubated at room temperature for 40 minutes; 10 µL of kinase detection reagent was added and incubated at room temperature for 30 minutes; the plate was read on a microplate reader, and luminescence was recorded (integration time set to 0.5 seconds).
(§6) The IC50 value could then be derived by performing a curve fit using a four-parameter logistic model (obtained using the "log(inhibitor) vs. response -- Variable slope" mode in GraphPad Prism).
Background: ADP-Glo first removes unused ATP, then detects ADP through luciferase.

In the next series the target is T2, ALK(G1202R/L1196M) (Homo sapiens, UniProt Q9UM73, G1202R/L1196M).
T2 construct: purchased Carna
T2 sequence (Q9UM73 19-1620 L1196M/G1202R): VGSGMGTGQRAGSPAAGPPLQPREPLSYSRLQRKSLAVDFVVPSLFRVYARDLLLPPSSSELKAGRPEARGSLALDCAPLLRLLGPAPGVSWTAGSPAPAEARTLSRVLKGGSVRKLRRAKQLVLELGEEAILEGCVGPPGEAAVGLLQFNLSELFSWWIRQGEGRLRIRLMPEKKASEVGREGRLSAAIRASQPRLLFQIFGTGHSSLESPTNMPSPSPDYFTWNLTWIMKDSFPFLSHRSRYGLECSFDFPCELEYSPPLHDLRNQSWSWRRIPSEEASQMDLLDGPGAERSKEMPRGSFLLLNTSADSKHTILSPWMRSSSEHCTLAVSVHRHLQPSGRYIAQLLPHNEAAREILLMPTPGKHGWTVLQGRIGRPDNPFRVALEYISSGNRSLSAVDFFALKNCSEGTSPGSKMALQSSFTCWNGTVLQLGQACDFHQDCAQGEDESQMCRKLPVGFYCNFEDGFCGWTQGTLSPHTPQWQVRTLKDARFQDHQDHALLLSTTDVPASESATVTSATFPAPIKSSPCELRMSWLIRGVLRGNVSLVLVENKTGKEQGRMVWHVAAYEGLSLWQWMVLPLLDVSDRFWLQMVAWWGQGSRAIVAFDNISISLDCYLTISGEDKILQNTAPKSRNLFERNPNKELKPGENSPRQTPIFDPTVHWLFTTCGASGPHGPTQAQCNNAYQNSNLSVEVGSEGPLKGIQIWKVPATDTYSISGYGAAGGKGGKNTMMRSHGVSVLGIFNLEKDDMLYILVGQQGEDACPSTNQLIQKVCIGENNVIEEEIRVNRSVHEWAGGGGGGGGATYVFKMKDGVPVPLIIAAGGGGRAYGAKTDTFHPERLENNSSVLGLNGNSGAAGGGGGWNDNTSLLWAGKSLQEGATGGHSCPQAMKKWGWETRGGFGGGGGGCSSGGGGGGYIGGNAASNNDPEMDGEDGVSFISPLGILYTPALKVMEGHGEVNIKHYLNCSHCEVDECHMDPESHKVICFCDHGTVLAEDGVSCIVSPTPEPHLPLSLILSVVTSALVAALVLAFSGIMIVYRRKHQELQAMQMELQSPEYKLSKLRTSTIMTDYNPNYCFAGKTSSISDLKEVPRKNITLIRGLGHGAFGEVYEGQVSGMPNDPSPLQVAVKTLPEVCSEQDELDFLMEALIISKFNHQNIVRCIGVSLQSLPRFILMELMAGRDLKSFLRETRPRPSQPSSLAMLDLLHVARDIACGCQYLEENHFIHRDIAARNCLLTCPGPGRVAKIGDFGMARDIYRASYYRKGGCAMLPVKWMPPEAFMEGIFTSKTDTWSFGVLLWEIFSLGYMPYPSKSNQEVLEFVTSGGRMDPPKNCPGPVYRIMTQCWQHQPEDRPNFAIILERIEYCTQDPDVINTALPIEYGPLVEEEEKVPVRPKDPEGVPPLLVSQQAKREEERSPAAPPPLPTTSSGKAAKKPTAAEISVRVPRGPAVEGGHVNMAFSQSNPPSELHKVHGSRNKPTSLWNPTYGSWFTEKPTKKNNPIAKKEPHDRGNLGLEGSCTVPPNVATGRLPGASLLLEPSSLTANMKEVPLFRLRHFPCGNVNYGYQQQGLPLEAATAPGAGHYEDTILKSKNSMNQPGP
The description is as above. The format is biochemical. As to conditions: Experimental method 2; ATP 5.0 µM, substrate IGF1; read-out: Kinase half maximal inhibitory concentration IC50 ALK^G1202R/L1196M. How it is done: as §3, §4
Reaction system: ALK(G1202R/L1196M) reaction concentration 8.63 nM, ATP concentration 5.0 µM, substrate IGF1 concentration 0.2 µg/µL. ALK(G1202R/L1196M) kinase buffer was 40 mM Tris-HCl (pH 7.5) + 20 mM magnesium chloride + 0.1 mg/mL BSA + 50 µM DTT.
as §5, §6

Series [3] is described as follows: In vivo pharmacokinetic testing in mice. Also noted: species or system male CD-1 mice. The following applies: mouse, IV, 0.5 mg/kg, plasma.
Description: The objective was to study the pharmacokinetic behavior of the compounds of the present disclosure in mice, using male CD-1 mice aged 7 to 9 weeks as test animals. The concentrations of the compounds in plasma at different time points after a single intravenous injection (IV) and oral gavage (PO) administration of the compound were determined using LC/MS/MS.
Two groups of healthy mice (fasted) were administered the compounds via intravenous injection (IV) and oral gavage (PO), with 2 mice in each group.
The test compounds were mixed with the solvent, vortexed, and sonicated to prepare a clear solution with a concentration of 0.5 mg/mL and a pH of 3.3-3.6. The intravenous injection dose for the mice was 1.0 mg/kg. […] The test compounds were mixed with the solvent, vortexed, and sonicated to prepare a homogeneous suspension with particles at a concentration of 0.5 mg/mL and a pH of 6.8-7.0. The oral gavage dose for the mice was 5.0 mg/kg.
The test compound was mixed with the solvent, vortexed, and sonicated to prepare a clear solution with a concentration of 1.0 mg/mL. The intravenous injection dose for the mice was 1.0 mg/kg. […] The test compound was mixed with the solvent, vortexed, and sonicated to prepare a homogeneous suspension with particles at a concentration of 0.5 mg/mL. The oral gavage dose for the mice was 5.0 mg/kg.
The test compounds were mixed with the solvent, vortexed, and sonicated to prepare a clear solution with a concentration of 0.1 mg/mL. The intravenous injection dose for the mice was 0.5 mg/kg. […] The test compound was mixed with the solvent, vortexed, and sonicated to prepare a homogeneous suspension with particles at a concentration of 0.5 mg/mL and a pH of 7.08. The oral gavage dose for the mice was 5.0 mg/kg. After administration, the whole blood was collected at the time points of 0.083 hours, 0.25 hours, 0.5 hours, 1.0 hour, 2.0 hours, 4.0 hours, 8.0 hours, 12.0 hours, and 24.0 hours. Plasma was prepared from the whole blood and analyzed for drug concentration by LC-MS/MS. The pharmacokinetic parameters were calculated using Phoenix WinNonlin 6.3.
For another series, the target named is T3, CYP3A4-M (Homo sapiens, UniProt P08684).
T3 construct: Mixed human liver microsomes (HLM) purchased from Corning Inc; tissue Corning Inc; host or cells: pooled human liver microsomes
T3 sequence (P08684 whole entry): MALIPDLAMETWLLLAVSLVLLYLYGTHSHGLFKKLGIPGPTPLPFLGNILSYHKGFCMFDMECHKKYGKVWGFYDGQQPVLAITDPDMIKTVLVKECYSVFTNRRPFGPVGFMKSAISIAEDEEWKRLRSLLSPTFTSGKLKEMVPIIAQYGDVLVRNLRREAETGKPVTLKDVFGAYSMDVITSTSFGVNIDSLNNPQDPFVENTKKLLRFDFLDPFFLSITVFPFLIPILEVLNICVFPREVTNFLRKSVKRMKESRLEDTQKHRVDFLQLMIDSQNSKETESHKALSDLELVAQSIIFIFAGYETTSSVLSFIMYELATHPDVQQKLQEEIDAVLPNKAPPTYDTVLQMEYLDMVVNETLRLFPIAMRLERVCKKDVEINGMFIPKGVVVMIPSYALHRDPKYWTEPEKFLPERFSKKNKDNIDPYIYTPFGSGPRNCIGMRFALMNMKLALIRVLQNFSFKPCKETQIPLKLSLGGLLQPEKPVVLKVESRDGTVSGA
Description: Cytochrome P450 isozyme inhibitory activity test (human liver microsomes). It is filed as in vitro ADME. The following applies: human liver microsomes 0.1 mg/mL.

A further series has as its target T4, CYP2C9 (Homo sapiens, UniProt P11712).
T4 construct: Mixed human liver microsomes (HLM) purchased from Corning Inc; tissue Corning Inc; host or cells: pooled human liver microsomes
Described as above. The format is in vitro ADME. The following applies: human liver microsomes 0.1 mg/mL; probe substrate Diclofenac. How it is done: To test the inhibitory activity of the compounds of the present disclosure on different subtypes of human liver microsomal cytochrome P450 isozymes.
Mixed human liver microsomes (HLM) purchased from Corning Inc. (Steuben, New York, USA); Diclofenac as the probe substrate (10 µM); Sulfaphenazole as the positive control inhibitor; 4'-Hydroxydiclofenac as the metabolite
Preparation of test system working solution: Human liver microsomes (HLM): HLM stock solution at 20.0 mg/mL, working solution at 0.2 mg/mL, final concentration at 0.1 mg/mL; Potassium phosphate buffer: 100 mM; Cofactor working solution: Magnesium chloride, NADP (nicotinamide adenine dinucleotide phosphate), G6P (glucose-6-phosphate), G6PDH (glucose-6-phosphate dehydrogenase), and phosphate buffer or magnesium chloride, NADPH (reduced nicotinamide adenine dinucleotide phosphate) powder, and potassium phosphate buffer; prepared into cofactor working solution at appropriate ratios;
Stop solution: Isotope-labeled 4'-hydroxydiclofenac-d4 stock solution prepared in methanol, then prepared into stop solution using acetonitrile.
In the substrate-free control sample wells of the reaction plate, 100 µL of a mixture of human liver microsome and potassium phosphate buffer was added. At the zero-time point sample wells, 98 µL of a mixture of the human liver microsome and potassium phosphate buffer was added. In the no-inhibitor control (NIC), test compound, and positive control inhibitor sample wells of the reaction plate, 100 µL of a mixture of the human liver microsome and substrate was added. From the dilution plate, 2 µL of blank solvent, test compound working solution (three parallels), and positive control inhibitor working solution (two parallels) were added to the reaction plate. The reaction plate was preheated at 37.0°C for 10 minutes. […] The concentration of specific metabolites in the samples was detected using the liquid chromatography-tandem mass spectrometry (LC-MS/MS) method. […] The IC50 values were calculated using a three-parameter or four-parameter inverse log equation.
(In general: Microsomes from liver hold many membrane-bound enzymes, among them those of drug oxidation.)

T1 sequence (Q16620 32-822): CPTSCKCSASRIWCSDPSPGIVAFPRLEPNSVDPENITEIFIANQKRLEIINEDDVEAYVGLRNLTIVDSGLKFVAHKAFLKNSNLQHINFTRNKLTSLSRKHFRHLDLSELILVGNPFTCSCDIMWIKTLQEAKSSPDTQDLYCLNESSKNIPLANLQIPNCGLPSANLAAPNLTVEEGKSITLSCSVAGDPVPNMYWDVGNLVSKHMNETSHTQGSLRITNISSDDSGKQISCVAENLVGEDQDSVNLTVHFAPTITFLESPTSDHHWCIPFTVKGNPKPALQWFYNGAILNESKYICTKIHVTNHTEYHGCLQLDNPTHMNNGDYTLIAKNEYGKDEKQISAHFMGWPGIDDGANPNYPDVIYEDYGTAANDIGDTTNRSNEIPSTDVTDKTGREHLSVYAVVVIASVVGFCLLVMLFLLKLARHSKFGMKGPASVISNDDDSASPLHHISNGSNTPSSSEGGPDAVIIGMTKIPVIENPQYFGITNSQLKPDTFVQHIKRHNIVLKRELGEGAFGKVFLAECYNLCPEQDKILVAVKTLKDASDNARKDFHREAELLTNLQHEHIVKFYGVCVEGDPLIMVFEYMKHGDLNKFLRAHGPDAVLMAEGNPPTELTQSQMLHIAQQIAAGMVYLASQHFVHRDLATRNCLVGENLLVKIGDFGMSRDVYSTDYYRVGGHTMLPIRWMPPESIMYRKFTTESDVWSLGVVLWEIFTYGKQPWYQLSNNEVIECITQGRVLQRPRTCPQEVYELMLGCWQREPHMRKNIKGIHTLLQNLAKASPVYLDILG
T4 sequence (P11712 whole entry): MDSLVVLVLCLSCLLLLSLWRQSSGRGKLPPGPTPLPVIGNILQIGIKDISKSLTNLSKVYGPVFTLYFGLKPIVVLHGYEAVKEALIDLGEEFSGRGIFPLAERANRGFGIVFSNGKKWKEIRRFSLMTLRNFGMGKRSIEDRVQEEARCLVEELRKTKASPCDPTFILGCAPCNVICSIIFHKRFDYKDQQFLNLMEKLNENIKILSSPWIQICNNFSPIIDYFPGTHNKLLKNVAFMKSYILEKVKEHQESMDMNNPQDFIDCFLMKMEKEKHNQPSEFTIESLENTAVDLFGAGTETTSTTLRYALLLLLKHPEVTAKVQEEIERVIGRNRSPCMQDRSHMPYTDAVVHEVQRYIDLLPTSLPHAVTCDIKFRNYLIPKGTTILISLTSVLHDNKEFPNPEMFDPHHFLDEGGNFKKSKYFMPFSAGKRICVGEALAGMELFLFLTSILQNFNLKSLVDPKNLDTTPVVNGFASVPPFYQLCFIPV

Take `CC1(C)COc2ncc(F)cc2CN2c3nc4c(cc3OC[C@H]2C(F)F)ncn4C(=O)N1` [Compound 013]: in series [1], the efflux ratio (commonly the permeability from basolateral to apical divided by that in the opposite direction, in the common usage) at 2.5 h, 2 µM was found to be 0.77. The Papp A→B (as a rule, how fast a substance crosses the layer from the apical side) at 2.5 h, 2 µM in series [1] (2 µM, 150 minutes, pH 7.40) was found to be 11.8 ×10⁻⁶ cm/s. The apparent permeability from basolateral to apical (Papp B→A) (usually how fast a substance crosses the layer from the basolateral side) at 2.5 h, 2 µM in series [1] (2 µM, 150 minutes, pH 7.40) came to 9.02 ×10⁻⁶ cm/s. Further, the IC50 in series [2] was determined as 1.2 nM; in the series on Ba/F3-TEL-TRKB, 0.3 nM.
`C#Cc1nn2cc3c4nc2c1C(=O)NC(C)(C)COc1ccc(F)cc1CN4[C@H](C(F)F)CO3` [Compound 019]: the IC50 at TRKB turned out to be 2.5 nM; on ALK(G1202R/L1196M) it was 0.9 nM; in series [2], 1.7 nM; in the series on Ba/F3-TEL-TRKB, 3.5 nM. Moreover, the “selectivity: inhibition against ALK-mutant cells versus TRKB phenotypic cells” value in series [2] (stronger inhibition of ALK-mutant cells, relatively weaker of TRKB phenotypic cells) is given as “excellent selectivity”. Further, the Vd in series [3] (read-out: Apparent volume of distribution Vd) amounted to 0.274 L/kg. For the same compound, the AUC(0-t) in series [3] (read-out: Area under the curve AUC0-last) came out at 15.2 µM·h. The half-life in series [3] (read-out: Half-life T1/2 (converted)) is 1.28 h.
As to `N#Cc1nn2cc3c4nc2c1C(=O)NC1(CCC1)COc1ccc(F)cc1CN4[C@H](C(F)F)CO3` [Compound 022], the IC50 is 24.7 nM on TRKB; greater than 50000 nM on CYP3A4-M; 7.8 nM on ALK(G1202R/L1196M); 460 nM against CYP2C9; 4.2 nM in series [2]; 2.3 nM with Ba/F3-TEL-TRKB.
With `N#Cc1nn2cc3c4nc2c1C(=O)N[C@H]1C[C@H](C1)Oc1ccc(F)cc1CN4[C@H](C(F)F)CO3` [Compound 024], the IC50 is 5.3 nM on TRKB; greater than 50000 nM against CYP3A4-M; 2.3 nM at ALK(G1202R/L1196M); 2120 nM on CYP2C9; 1.6 nM in series [2]; 0.8 nM in the series on Ba/F3-TEL-TRKB.
